Laboratory results published in ChEMBL document CHEMBL1157959, “Pimarane diterpene and cytochalasin derivatives from the endophytic fungus Eutypella scoparia PSU-D44” (2006).
Converted amounts (≈) assume the structure as drawn.

Experiments:
Staphylococcus aureus = assay: Antimicrobial activity against Staphylococcus aureus ATCC 25923; assay type: functional
Nannizzia gypsea = assay: Antimicrobial activity against Microsporum gypseum SH-MU-4; assay type: functional

| MIC (Staphylococcus aureus) [µM] | Structure (SMILES) | MIC (Nannizzia gypsea) [µM] |
| --- | --- | --- |
| 87.8 (≈ 32 µg/mL) | C=C[C@]1(C)C=C2C(=O)[C@]3(O)OC[C@@]4(CCCC(C)(C)[C@@]43O)[C@@]2(O)[C@H](O)C1 [DIAPORTHEIN B] |  |
|  | COc1ccc(C[C@@H]2NC(=O)[C@@]34OC(=O)O/C=C/[C@@](C)(O)C(=O)[C@@H](C)C/C=C/[C@H]3[C@H](O)[C@](C)(O)[C@@H](C)[C@@H]24)cc1 [SCOPARASIN B] | 30.3 (≈ 16.5 µg/mL) |
